Assay results reported in patent US9828393B2, “Silylalkyloxyaryl compounds and methods for treating cancer” (THE REGENTS OF THE UNIVERSITY OF COLORADO, a body corporate, priority 2013, dated 2017).

Assays:
SK-MEL-5 = assay: NCI-60 cell line screen (SRB), SK-MEL-5; assay type: cell-based, human; settings: Homo sapiens; Melanoma; SK-MEL-5; 48 h drug incubation; read-out: GI50
Description: (§1) Drug sensitivity data are provided as GI50s (concentrations required to inhibit growth by 50%). The first row of the text file identifies cell lines, separated by tabs. Subsequent rows contain compound number, compound name, and GI50 for each cell line, each separated by a tab. […] For a typical screening experiment, cells are inoculated into 96 well microtiter plates in 100 μL at plating densities ranging from 5,000 to 40,000 cells/well depending on the doubling time of individual cell lines. After cell inoculation, the microtiter plates are incubated at 37° C., 5% CO2, 95% air and 100% relative humidity for 24 h prior to addition of experimental drugs. After 24 h, two plates of each cell line are fixed in situ with TCA, to represent a measurement of the cell population for each cell line at the time of drug addition (Tz). Experimental drugs are solubilized in dimethyl sulfoxide at 400-fold the desired final maximum test concentration and stored frozen prior to use. At the time of drug addition, an aliquot of frozen concentrate is thawed and diluted to twice the desired final maximum test concentration with complete medium containing 50 μg/ml gentamicin. Additional four, 10-fold or one-half log serial dilutions are made to provide a total of five drug concentrations plus control. Aliquots of 100 μl of these different drug dilutions are added to the appropriate microtiter wells already containing 100 μl of medium, resulting in the required final drug concentrations. Following drug addition, the plates are incubated for an additional 48 h at 37° C., 5% CO2, 95% air, and 100% relative humidity. For adherent cells, the assay is terminated by the addition of cold TCA. Cells are fixed in situ by the gentle addition of 50 μl of cold 50% (w/v) TCA (final concentration, 10% TCA) and incubated for 60 minutes at 4° C. The supernatant is discarded, and the plates are washed five times with tap water and air dried. Sulforhodamine B (SRB) solution (100 μl) at 0.4% (w/v) in 1% acetic acid is added to each well, and plates are incubated for 10 minutes at room temperature. After staining, unbound dye is removed by washing five times with 1% acetic acid and the plates are air dried. Bound stain is subsequently solubilized with 10 mM trizma base, and the absorbance is read on an automated plate reader at a wavelength of 515 nm. For suspension cells, the methodology is the same except that the assay is terminated by fixing settled cells at the bottom of the wells by gently adding 50 μl of 80% TCA (final concentration, 16% TCA). Using the seven absorbance measurements [time zero, (Tz), control growth, (C), and test growth in the presence of drug at the five concentration levels (Ti)], the percentage growth is calculated at each of the drug concentrations levels. […]

MCF-7 = assay: NCI-60 cell line screen (SRB), MCF-7; assay type: cell-based, human; settings: Homo sapiens, MCF7; Breast Cancer; MCF-7; 48 h drug incubation; read-out: GI50
Description: as §1

TK-10 = assay: NCI-60 cell line screen (SRB), TK-10; assay type: cell-based, human; settings: Homo sapiens; Renal Cancer; TK-10; 48 h drug incubation; read-out: GI50
Description: as §1

[1] = system: Prostate Cancer cell lines; assay: NCI-60 cell line screen, Prostate Cancer panel average; assay type: cell-based, human; settings: Homo sapiens; average over Prostate Cancer panel; read-out: GI50 Average
Description: as §1

HCT-116 = assay: NCI-60 cell line screen (SRB), HCT-116; assay type: cell-based, human; settings: Homo sapiens; Colon Cancer; HCT-116; 48 h drug incubation; read-out: GI50
Description: as §1

NCI-H23 = assay: NCI-60 cell line screen (SRB), NCI-H23; assay type: cell-based, human; settings: Homo sapiens; Non-Small Cell Lung Cancer; NCI-H23; 48 h drug incubation; read-out: GI50
Description: as §1

OVCAR-5 = assay: NCI-60 cell line screen (SRB), OVCAR-5; assay type: cell-based, human; settings: Homo sapiens; Ovarian Cancer; OVCAR-5; 48 h drug incubation; read-out: GI50
Description: as §1

HL-60(TB) = assay: NCI-60 cell line screen (SRB), HL-60(TB); assay type: cell-based, human; settings: Homo sapiens; Leukemia; HL-60(TB); 48 h drug incubation; read-out: GI50
Description: as §1

NCI-H460 = assay: NCI-60 cell line screen (SRB), NCI-H460; assay type: cell-based, human; settings: Homo sapiens; Non-Small Cell Lung Cancer; NCI-H460; 48 h drug incubation; read-out: GI50
Description: as §1

BT-549 = assay: NCI-60 cell line screen (SRB), BT-549; assay type: cell-based, human; settings: Homo sapiens; Breast Cancer; BT-549; 48 h drug incubation; read-out: GI50
Description: as §1

SW-620 = assay: NCI-60 cell line screen (SRB), SW-620; assay type: cell-based, human; settings: Homo sapiens; Colon Cancer; SW-620; 48 h drug incubation; read-out: GI50
Description: as §1

SNB-75 = assay: NCI-60 cell line screen (SRB), SNB-75; assay type: cell-based; settings: Homo sapiens; CNS Cancer; SNB-75; 48 h drug incubation; read-out: GI50
Description: as §1, with “temperature.” for “temperature. After staining, unbound dye is removed by washing five times with 1% acetic acid and the plates are air dried. Bound stain is subsequently solubilized with 10 mM trizma base, and the absorbance is read on an automated plate reader at a wavelength of 515 nm. For suspension cells, the methodology is the same except that the assay is terminated by fixing settled cells at the bottom of the wells by gently adding 50 μl of 80% TCA (final concentration, 16% TCA). Using the seven absorbance measurements [time zero, (Tz), control growth, (C), and test growth in the presence of drug at the five concentration levels (Ti)], the percentage growth is calculated at each of the drug concentrations levels.”

A549/ATCC = assay: NCI-60 cell line screen (SRB), A549/ATCC; assay type: cell-based, human; settings: Homo sapiens; Non-Small Cell Lung Cancer; A549/ATCC; 48 h drug incubation; read-out: GI50
Description: as §1

SNB-19 = assay: NCI-60 cell line screen (SRB), SNB-19; assay type: cell-based, human; settings: Homo sapiens; CNS Cancer; SNB-19; 48 h drug incubation; read-out: GI50
Description: as §1

CCRF-CEM = assay: NCI-60 cell line screen (SRB), CCRF-CEM; assay type: cell-based, human; settings: Homo sapiens, Leukemia, 48 h drug incubation, read-out: GI50
Description: as §1

Breast Cancer cell lines = assay: NCI-60 cell line screen, Breast Cancer panel average; assay type: cell-based, human; settings: Homo sapiens; average over Breast Cancer panel; read-out: GI50 Average
Description: as §1

CNS Cancer cell lines = assay: NCI-60 cell line screen, CNS Cancer panel average; assay type: cell-based, human; settings: Homo sapiens; average over CNS Cancer panel; read-out: GI50 Average
Description: as §1

PC-3 = assay: NCI-60 cell line screen (SRB), PC-3; assay type: cell-based, human; settings: Homo sapiens; Prostate Cancer; PC-3; 48 h drug incubation; read-out: GI50
Description: as §1

HOP-62 = assay: NCI-60 cell line screen (SRB), HOP-62; assay type: cell-based, human; settings: Homo sapiens; Non-Small Cell Lung Cancer; HOP-62; 48 h drug incubation; read-out: GI50
Description: as §1

MDA-MB-468 = assay: NCI-60 cell line screen (SRB), MDA-MB-468; assay type: cell-based, human; settings: Homo sapiens; Breast Cancer; MDA-MB-468; 48 h drug incubation; read-out: GI50
Description: as §1

Melanoma cell lines = assay: NCI-60 cell line screen, Melanoma panel average; assay type: cell-based, human; settings: Homo sapiens; average over Melanoma panel; read-out: GI50 Average
Description: as §1

NCI-H322M = assay: NCI-60 cell line screen (SRB), NCI-H322M; assay type: cell-based, human; settings: Homo sapiens, Non-Small Cell Lung Cancer, 48 h drug incubation, read-out: GI50
Description: as §1

[2] = system: Ovarian Cancer cell lines; assay: NCI-60 cell line screen, Ovarian Cancer panel average; assay type: cell-based, human; settings: Homo sapiens; average over Ovarian Cancer panel; read-out: GI50 Average
Description: as §1

HCC-2998 = assay: NCI-60 cell line screen (SRB), HCC-2998; assay type: cell-based, human; settings: Homo sapiens; Colon Cancer; HCC-2998; 48 h drug incubation; read-out: GI50
Description: as §1

CCCC[Si](C)(C)COc1ccc(C(=O)N[C@@H](Cc2ccc(OCc3c(Cl)cccc3Cl)cc2)C(=O)NC2CC(C)(C)NC(C)(C)C2)cc1 [GH1503, N^α-{4-[(butyldimethylsilyl)methoxy]-benzoyl}-N-(2,2,6,6-tetramethylpiperidin-4-yl)-[O-(2,6-dichlorobenzyl)-L-tyrosinamide]]
GI50 (SK-MEL-5): 1680 nM | GI50 (MCF-7): 356 nM | GI50 (TK-10): 1890 nM | GI50 [1]: 382 nM | GI50 (HCT-116): 319 nM | GI50 (NCI-H23): 1560 nM | GI50 (OVCAR-5): 1620 nM | GI50 (HL-60(TB)): 790 nM | GI50 (NCI-H460): 259 nM | GI50 (BT-549): 2110 nM | GI50 (SW-620): 318 nM | GI50 (SNB-75): 1350 nM | GI50 (A549/ATCC): 332 nM | GI50 (SNB-19): 1600 nM | GI50 (CCRF-CEM): 531 nM | GI50 (Breast Cancer cell lines): 1390 nM | GI50 (CNS Cancer cell lines): 1100 nM | GI50 (PC-3): 490 nM | GI50 (HOP-62): 1510 nM | GI50 (MDA-MB-468): 1540 nM | GI50 (Melanoma cell lines): 1130 nM | GI50 (NCI-H322M): 1570 nM | GI50 [2]: 1050 nM | GI50 (HCC-2998): 1070 nM
